Reference: US11976058B2, “Aromatic derivatives, preparation methods, and medical uses thereof” (Bioardis LLC, priority 2019, dated 2024)
Where two headings read alike, the source gives them in different places.

Key:
Hep3B cells = assay: Cell-based FGFR4 proliferation assay (CellTiter-Glo); conditions: incubated with test compound for 3 days, CellTiter-Glo luminescence, read-out: Potency (IC50), Hep3B cell proliferation
Procedure: Hepatocellular carcinoma cell line Hep3B (ATCC, Cat #HB-8064) were cultured at 37° C., 5% CO2 in ATCC-formulated Eagle's Minimum Essential Medium supplemented with 10% fetal bovine serum; 1% Penicillin-Streptomycin.
Cell line: Hepatocellular carcinoma cell line Hep3B (ATCC, Cat #HB-8064).
In this assay, Hep3B cells are seeded in 384-well microplates, and after exposure to experimental compounds for […], CellTiter-Glo® Luminescent Cell Viability Assay kit (Promega, Cat #G7572) are used to determine the number of viable cells in the culture based on quantitation of the ATP present, which signals the presence of metabolically active cells. Luminescent signal is proportional to the amount of ATP present. The amount of ATP is directly proportional to the number of cells present in the culture, allowing drug-induced effects on cell proliferation to be measured.
Hep3B cells were plated at a density of 4×10^4/ml cells in a 384-well black/clear microplate with 20 μL per well of MEM Medium (Gibco Cat. #11095-080) supplemented with 10% fetal bovine serum; 1% Penicillin-Streptomycin, and cultured overnight at 37° C., 5% CO2. Various concentrations of the test compound (dissolved in 100% DMSO) were added to the wells of the cell plate. The cells were incubated with the test compound for 3 days at 37° C., 5% CO2. 5 μL of CellTiter-Glo® Reagent was added to each well of the cell plate. The cell plate was incubated for 5 min at 25° C. on a plate shaker (IKA MTS 2/4) at 300 rpm. Luminescence signals were read on a TECAN Spark 10M instrument (TECAN). […] The concentrations and percent inhibition values for a test compound were plotted and the concentration of the compound required to achieve 50% inhibition (IC50) is determined with a four-parameter logistic dose response equation. Dose-response curves were generated using Prism (GraphPad Software, La Jolla, CA, US) to calculate IC50 values for each compound tested.

human FGFR4 = target: T1, human FGFR4 (Homo sapiens, UniProt P22455); assay: FGFR4 enzymatic assay (HTRF KinEASE-TK); type: biochemical; conditions: wild-type human FGFR4 cytoplasmic domain (460-802), GST-tag; 60 min preincubation at 25° C.; ATP 200 μM; read-out: Potency (IC50), FGFR4 enzymatic assay
T1 construct: human FGFR4 cytoplasmic domain (460-802); GST (N); purchased Carna Biosciences 08-136
T1 sequence (P22455 460-802): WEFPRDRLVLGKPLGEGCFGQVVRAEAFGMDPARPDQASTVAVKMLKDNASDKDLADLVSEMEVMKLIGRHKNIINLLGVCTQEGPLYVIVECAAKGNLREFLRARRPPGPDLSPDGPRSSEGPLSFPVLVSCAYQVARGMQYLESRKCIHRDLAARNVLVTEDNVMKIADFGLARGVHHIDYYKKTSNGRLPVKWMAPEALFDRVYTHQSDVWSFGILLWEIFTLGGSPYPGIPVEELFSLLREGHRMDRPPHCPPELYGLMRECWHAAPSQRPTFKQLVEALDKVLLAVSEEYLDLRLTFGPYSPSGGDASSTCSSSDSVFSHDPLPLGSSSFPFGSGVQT
Procedure: The ability of compounds to inhibit human FGFR4 tyrosine kinase activities was determined using a commercially available HTRF® KinEASE™-TK kit (CISBIO, Cat #62TK0PEC) according to the manufacturer's protocol. Wild-type human FGFR4 cytoplasmic domain (460-802) with N-terminal GST-tag was purchased from Carna Biosciences (Carna, Cat #08-136) and used in the kinase enzymatic assay. This assay, run in a 384-well plate format, is a generic method for measuring tyrosine kinase activities using one substrate and a universal detection system. It involves two steps: (1) Enzymatic step: the biotin labeled TK Substrate is incubated with the kinase and then ATP is added to start the enzymatic reaction; during this step, FGFR4 will phosphorylate the TK Substrate-biotin. (2) Detection step: The TK-Antibody labeled with Eu^3+-Cryptate can recognize the phosphorylated TK Substrate-biotin. When the streptavidin-XL665 conjugate binds the biotin, a FRET signal will be detected. Briefly, human FGFR4 (0.25 μg/ml) in the enzymatic buffer solutions (250 mM HEPES, pH7.0, 0.1% NaN3, 0.05% BSA, 0.5 mM Orthovanadate) were mixed with various concentrations of the test compound (dissolved in 100% DMSO). These solutions were incubated for 60 min at 25° C., and subsequently a mixture of substrate peptide and ATP was added with the final peptide and ATP concentrations at 0.3 μM and 200 μM respectively. The final reaction mixture of enzyme-substrate-ATP-compound was incubated for 40 min at 37° C. Meanwhile the detection mixture containing the TK-antibody and Streptavidin-XL665 diluted in the detection buffer (50 mM HEPES, pH7.0, with additives) was prepared, and added to the reaction mixture at final concentrations of 25 nM and 18.5 nM respectively. After incubation for 60 min at 25° C., the FRET signal of the final solution was measured at 665 nm and 612 nm emissions on a TECAN Spark 10M instrument (TECAN). The percent (%) inhibition at each concentration of a compound was calculated relative to the FRET signal in the Max and Min control wells contained within each assay plate. The Max control wells contained enzyme and substrate as 0% inhibition, and the Min control wells only contained substrate without enzyme as 100% inhibition. The concentrations and percent inhibition values for a test compound are plotted and the concentration of the compound required to achieve 50% inhibition (IC50) was determined with a four-parameter logistic dose response equation. Dose-response curves were generated using Prism (GraphPad Software, La Jolla, CA, US) to calculate IC50 values for each compound tested.

| IC50 (Hep3B cells; Homo sapiens, Hep3B, 72 h) [nM] | IC50 (human FGFR4) [nM] | IC50 (Hep3B cells) [nM] | Compound |
| --- | --- | --- | --- |
| 10 to 100 | < 10 | – | C=CC(=O)Nc1cn(CCN(C)C)nc1-c1n[nH]c2c1CCC[C@H](c1c(F)c(OC)cc(OC)c1F)C2 [Compound S31, (S)—N-(3-(7-(2,6-difluoro-3,5-dimethoxyphenyl)-1,4,5,6,7,8-hexahydrocyclohepta[c]pyrazol-3-yl)-1-(2-(dimethylamino)ethyl)-1H-pyrazol-4-yl)acrylamide] |
| < 10 | < 10 | – | C=CC(=O)Nc1cn(CCN(C)C)nc1-c1n[nH]c2c1CCC[C@@H](c1c(F)c(OC)cc(OC)c1F)C2 [Compound S32, (R)—N-(3-(7-(2,6-difluoro-3,5-dimethoxyphenyl)-1,4,5,6,7,8-hexahydrocyclohepta[c]pyrazol-3-yl)-1-(2-(dimethylamino)ethyl)-1H-pyrazol-4-yl)acrylamide] |
| – | < 10 | 10 to 100 | [2H]C([2H])([2H])n1ncc(NC(=O)C=C)c1-c1n[nH]c2c1CCC(c1c(F)c(OC)cc(OC)c1F)C2 (single isomer, unassigned) [Compound S16-P2, N-(5-(6-(2,6-difluoro-3,5-dimethoxyphenyl)-4,5,6,7-tetrahydro-1H-indazol-3-yl)-1-(methyl-d3)-1H-pyrazol-4-yl)acrylamide] |
| – | > 100 | – | COc1cc(OC)c(F)c(C2CCc3c(-c4c(NC(C)=O)cnn4C)n[nH]c3C2)c1F (single isomer, unassigned) [Compound S19-P1, N-(5-(6-(2,6-difluoro-3,5-dimethoxyphenyl)-4,5,6,7-tetrahydro-1H-indazol-3-yl)-1-methyl-1H-pyrazol-4-yl)acetamide] |

Second part, the compound before the results:

| Compound | IC50 (Hep3B cells; Homo sapiens, Hep3B, 72 h) [nM] | IC50 (human FGFR4) [nM] | IC50 (Hep3B cells) [nM] |
| --- | --- | --- | --- |
| C=CC(=O)Nc1cnn(C)c1-c1n[nH]c2c1COC(c1c(F)c(OC)cc(OC)c1F)C2 (single isomer, unassigned) [Compound S6-P1, N-(5-(6-(2,6-difluoro-3,5-dimethoxyphenyl)-1,4,6,7-tetrahydropyrano[4,3-c]pyrazol-3-yl)-1-methyl-1H-pyrazol-4-yl) acrylamide] | > 100 | > 100 | – |
| C=CC(=O)Nc1ncn(C)c1-c1n[nH]c2c1CCC(c1c(F)c(OC)cc(OC)c1F)C2 (single isomer, unassigned) [Compound S3-P1, N-(5-(6-(2,6-Difluoro-3,5-dimethoxyphenyl)-4,5,6,7-tetrahydro-1H-indazol-3-yl)-1-methyl-1H-imidazol-4-yl) Acrylamide] | > 100 | > 100 | – |
| C=CC(=O)N[C@H]1COC[C@H]1c1n[nH]c2c1CC[C@H](c1cc(OC)cc(OC)c1F)C2 [Compound S13-P3, N-((3R,4R)-4-((S)-6-(2-fluoro-3,5-dimethoxyphenyl)-4,5,6,7-tetrahydro-1H-indazol-3-yl)tetrahydrofuran-3-yl)acrylamide] | – | > 100 | – |
| C=CC(=O)Nc1c[nH]nc1-c1n[nH]c2c1CCC(c1c(F)c(OC)cc(OC)c1F)C2 (single isomer, unassigned) [Compound S15-P2, N-(3-(6-(2,6-difluoro-3,5-dimethoxyphenyl)-4,5,6,7-tetrahydro-1H-indazol-3-yl)-1H-pyrazol-4-yl)acrylamide] | – | < 10 | < 10 |
| C=CC(=O)N[C@@H]1COC[C@@H]1c1n[nH]c2c1CC[C@H](c1c(F)c(OC)cc(OC)c1F)C2 [Compound S13-P2, N-((3S,4S)-4-((S)-6-(2,6-difluoro-3,5-dimethoxyphenyl)-4,5,6,7-tetrahydro-1H-indazol-3-yl)tetrahydrofuran-3-yl)acrylamide] | – | > 100 | – |
